In article PMC3256212, “Mechanism and Function of Drosophila capa GPCR: A Desiccation Stress-Responsive Receptor with Functional Homology to Human NeuromedinU Receptor” (PLoS ONE, 2012):
Peptide text beside a SMILES is read from it.

System: tubule principal cells
Set-up: species or system Drosophila melanogaster
Description: All lines were maintained on a standard Drosophila diet at 22°C, 55% humidity on a 12∶12 h light∶dark photoperiod. Wild-type flies were obtained from a Canton-S (CS) stock. In order to drive cell- and tissue-specific gene expression of gene(s) of choice in vivo, the GAL4/UAS system was used, in which cell- or tissue-specific GAL4 ‘drivers’ enable binary expression of genes cloned downstream of the GAL4-binding Upstream Activating Sequence. Thus, for intact tubules, principal cell-specific expression can be driven using either c42-GAL4 [16] or Urate-Oxidase-GAL4 [17] drivers in an otherwise normal fly. […] Validation of the capaR RNAi line was confirmed by quantitative Q-RT-PCR using the primers 5′-[…]-3′ and 5′-[…]-3′ (Fig. S1). […]
Drosophila S2 cells, cultured under standard conditions were transiently transfected with the apoaequorin ORF [21] and a receptor ORF construct, and expression induced using CuSO4. […] Bioluminescence recordings were carried out using a Mithras LB940 automated 96-well plate reader (Berthold Technologies) and MikroWin software. […] At the end of each recording samples were disrupted by the addition of 100 µl lysis solution, and the [Ca^2+] concentrations calculated as previously described. […]

How did the EC50 turn out when `CC(C)C[C@H](NC(=O)[C@H](Cc1ccccc1)NC(=O)[C@H](Cc1ccc(O)cc1)NC(=O)CNC(=O)[C@H](CCCNC(=N)N)NC(=O)[C@H](CO)NC(=O)[C@H](CCC(N)=O)NC(=O)[C@H](CO)NC(=O)[C@H](C)NC(=O)[C@H](Cc1ccccc1)NC(=O)[C@@H]1CCCN1C(=O)[C@H](CO)NC(=O)[C@H](CCC(N)=O)NC(=O)[C@H](Cc1ccccc1)NC(=O)[C@H](CCC(=O)O)NC(=O)[C@H](CCC(=O)O)NC(=O)[C@H](CC(=O)O)NC(=O)[C@@H](NC(=O)[C@H](CCCNC(=N)N)NC(=O)[C@@H](N)Cc1ccccc1)C(C)C)C(=O)N[C@@H](Cc1ccccc1)C(=O)N[C@@H](CCCNC(=N)N)C(=O)N1CCC[C@H]1C(=O)N[C@@H](CCCNC(=N)N)C(=O)N[C@@H](CC(N)=O)C(N)=O` [NMU-25, reference compound] (H-FRVDEEFQSPFASQSRGYFLFRPRN-NH2) was run?
Its EC50 is 27.1 nM.
